Marks after values point to notes of the source that are not given here.

The results in this text go back to patent publication US20160145300A1, “ARTIFICIAL DECAPEPTIDE, MEDICATION AND METHOD OF INDUCING BREEDING OF CRUSTACEANS” (National Pingtung University of Science and technology, priority 2014, published 2016).

What all share (type): in vivo
Assay [1] concerns male shrimps (Litopenaeus vannamei). The assay can be described thus: maturity of spermatophore in male shrimps after administration of sustainable releasing dosage. As to the method: After these, an effective amount of the artificially decapeptide is administrated to a crustacean, wherein, the effective amount of the artificially decapeptide may be 10 nanograms (ng) to 1000 ng, preferably 50 ng, per gram of body weight for each administrating. In one embodiment of the present embodiment a sustainable releasing dosage of the artificial decapeptide may be optionally prepared and administrated to the crustacean, so as to simplify the administration process. A method of preparing the sustainable releasing dosage of the artificially decapeptide, for example, may include formulating a great amount of the artificially decapeptide in an excipient, such as an excipient including oil. For example, 100 ng to 2000 ng of the artificially decapeptide may be formulated in 50 microliter (μl) to 200 μl of the excipient. With such arrangement, while the sustainable releasing dosage of the artificially decapeptide is administrated to the crustacean, the artificially decapeptide therein may be allowed to progressively release in the crustacean, thereby extending the inducing effect to the crustacean. […]
(§1) In the present test, the artificial decapetide is firstly formulated in the aforementioned sustainable releasing dosage and then administrated to each Litopenaeus vannamei. After that, the spermatophore development of each male shrimp is determined and recorded every 4 days after the administration, through observing the external characteristics spermatophore. Also, the spermatophore weight, as well as the sperm count, is precisely measured 44 days after the administration. On the other hand, the ovarian development of each female shrimp is also determined and recorded weekly 2-4 months after the administration through observing the external characteristics and the maturity of ovarian. Furthermore, the spawning times of each female shrimp may be also recorded. […]

The test system of assay [2] is female shrimps (Litopenaeus vannamei). The assay can be described thus: ovarian development of female shrimps after administration. The note with it: recorded weekly 2-4 months after the administration, percentage relative to overall Litopenaeus vannamei in the test. Here is the method: (§2) After these, an effective amount of the artificially decapeptide is administrated to a crustacean, wherein, the effective amount of the artificially decapeptide may be 10 nanograms (ng) to 1000 ng, preferably 50 ng, per gram of body weight for each administrating. In one embodiment of the present embodiment a sustainable releasing dosage of the artificial decapeptide may be optionally prepared and administrated to the crustacean, so as to simplify the administration process. A method of preparing the sustainable releasing dosage of the artificially decapeptide, for example, may include formulating a great amount of the artificially decapeptide in an excipient, such as an excipient including oil. For example, 100 ng to 2000 ng of the artificially decapeptide may be formulated in 50 microliter (μl) to 200 μl of the excipient. With such arrangement, while the sustainable releasing dosage of the artificially decapeptide is administrated to the crustacean, the artificially decapeptide therein may be allowed to progressively release in the crustacean, thereby extending the inducing effect to the crustacean. Thus, in another embodiment of the present invention, the sustainable releasing dosage of the artificially decapeptide may be administrated to the crustacean every three to six months, preferably every four months, but not limited thereto. In other embodiment of the present invention, the artificially decapeptide may also be firstly formulated in saline, to forma solvent, and then, mixed with the excipient, wherein a volume ratio between the solvent and the excipient may be 1:1 to 1:3. Furthermore, in another embodiment, the excipient may include mineral oil, such as […] or incomplete adjuvant; vegetable oil, such as peanut oil, olive oil or coconut oil; fat adhesive, such as methylcellulose; or a composite of the aforementioned oil.
In the present test, the artificial decapeptide of the present invention is exemplified on numbers of Litopenaeus vannamei (Decapoda: Macrura). However, people in the art should easily realize the present invention is not limited thereto.
In the present test, the artificial decapetide is firstly formulated in the aforementioned sustainable releasing dosage and then administrated to each Litopenaeus vannamei. After that, the spermatophore development of each male shrimp is determined and recorded every 4 days after the administration, through observing the external characteristics spermatophore. Also, the spermatophore weight, as well as the sperm count, is precisely measured 44 days after the administration. On the other hand, the ovarian development of each female shrimp is also determined and recorded weekly 2-4 months after the administration through observing the external characteristics and the maturity of ovarian. Furthermore, the spawning times of each female shrimp may be also recorded. Please refer to TABLEs 1-3 and FIGS. 1-2, which illustrate gonadal promoting effects of the artificial decapeptide either on male or female shrimps (Litopenaeus vannamei). Wherein, TABLE 1 and FIGS. 1-2 show the maturity of spermatophore in male shrimps, including the development stage, spermatophore weight and sperm count per spermatophore, after the artificial decapeptide is administrated, in comparison with untreated male shrimps (control; marked as B in FIGS. 1-2), respectively.

For assay [3] the test system is unchanged. Nature of the assay: spawning times of female shrimps after administration. As to the method: as §2
In the present test, the artificial decapeptide of the present invention is exemplified on numbers of Litopenaeus vannamei (Decapoda: Macrura). […]
as §1

Setting [4] is: 44 days after the administration.

Take “artificial decapeptide: Synthetic 10-amino-acid peptide based on chicken GnRH-II (SEQ ID NO: 2); N-terminal Glu and C-terminal Gly unblocked (H-EHWSHGWYPG-OH; listed as Gallus gallus)”: in assay [1] (setting [4]), the “sperm count per spermatophore” value was 68.5 ± 18.14 10^5/per spermatophore and the spermatophore weight amounted to 0.0217 ± 0.007 g. Moreover, the “spermatophore development stage reached” value in assay [1] (in 44 days after the administration) was 2.5. The “percentage of female shrimps at ovarian development stage 0” value in assay [2] (stage 0) was determined as 0%^b. Further, the “percentage of female shrimps at ovarian development stage 0.5” value in assay [2] (stage 0.5) is listed as 20%^b. For the same substance, the “percentage of female shrimps at ovarian development stage 1” value in assay [2] (stage 1) is listed as 0%^b. Also, in assay [2] (stage 1.5), the “percentage of female shrimps at ovarian development stage 1.5” value is given as 0%^b. Also, the “percentage of female shrimps at ovarian development stage 2” value in assay [2] (stage 2) worked out at 0%^b. The “percentage of female shrimps at ovarian development stage 2.5” value in assay [2] (stage 2.5) was 0%^b. In addition, the “percentage of female shrimps at ovarian development stage 3” value in assay [2] (stage 3) is 0%^b. In assay [3] (0 spawnings, 8-16 weeks after administrating, percentage relative to overall Litopenaeus vannamei in the test), the “percentage of female shrimps with spawning times 0” value is given as 20%^b. For the same substance, the “percentage of female shrimps with spawning times 3” value in assay [3] (3 spawnings, 8-16 weeks after administrating, percentage relative to overall Litopenaeus vannamei in the test) stood at 0%^b. Besides, the effective period result in assay [3] (compared with current techniques (around one month)) is “between two and four”. For the same substance, the “number of spawnings induced” value in assay [3] (compared with current techniques (fewer times of spawning)) is given as “four”.
